{"source": "patent US4487965A", "about": "“Trans-3-(4'-tert.-Butylcyclohex-1'yl)-2-methyl-1-dialkylaminopropanes, their preparation and their use as drugs” (BASF Aktiengesellschaft, priority 1982, dated 1984)", "key": {"[1]": {"tested_on": "Trichophyton mentagrophytes", "assay": "guinea pig trichophytosis model, external application", "type": "in vivo", "details": "externally once daily", "description": "Furthermore, the novel compounds were tested in the guinea pig trichophyt is model (Trichophyton mentagrophytes; cf. Heffter-Heubner: Handbuch der experimentellen Pharmakologie, Volume XVI/11A, Springer Verlag, Berlin, Heidelberg, New York, 1967), in which the compounds were applied externally in the form of 0.2, 0.5 and 1% strength suspensions. Application was effected once daily for 4 and 7 days respectively. After the 4th and 7th day of treatment, and 7 days after the last treatment, hairs or scales were pulled off at from 3 to 5 points in the infected area in each animal, and were incubated in Sabourand dextrose bouillon.\nEvaluation was carried out by monitoring fungal growth after incubation for 8 days."}, "[2]": {"tested_on": "Candida albicans ATCC 14052", "assay": "in vitro antimicrobial activity, agar dilution test (minimum inhibitory concentrations)", "type": "cell-based", "description": "(§1) The in vitro antimicrobial activity against microorganisms was determined in the agar dilution test (P. Klein, loc. cit.)."}, "[3]": {"tested_on": "Epidermophyton floccosum ATCC 10227", "assay": "in vitro antimicrobial activity, agar dilution test (minimum inhibitory concentrations)", "type": "cell-based", "description": "as §1"}, "[4]": {"tested_on": "Mikrosporon ferrugineum CBS 317.31", "assay": "in vitro antimicrobial activity, agar dilution test (minimum inhibitory concentrations)", "type": "cell-based", "description": "as §1"}, "[5]": {"tested_on": "Trichophyton mentagroph. ATCC 4807", "assay": "in vitro antimicrobial activity, agar dilution test (minimum inhibitory concentrations)", "type": "cell-based, Trichophyton mentagrophytes", "description": "as §1"}, "[6]": {"details": "0.2% suspension, 7 days after treatment"}, "[7]": {"details": "1.0% suspension, 7 days after treatment"}}, "data": [{"smiles": "Clc1ccccc1C(c1ccccc1)(c1ccccc1)n1ccnc1", "note": "[Clotrimazole, reference compound]", "values": [{"measurement": "fraction of animals in which infection was observed", "setting": "[1]; 0.2% suspension, 4 days", "result": "3/5"}, {"measurement": "fraction of animals in which infection was observed", "setting": "[1]; 0.2% suspension, 7 days", "result": "3/5"}, {"measurement": "fraction of animals in which infection was observed", "setting": "[1]; [6]", "result": "3/5"}, {"measurement": "fraction of animals in which infection was observed", "setting": "[1]; 1.0% suspension, 4 days", "result": "2/5"}, {"measurement": "fraction of animals in which infection was observed", "setting": "[1]; 1.0% suspension, 7 days", "result": "0/5"}, {"measurement": "fraction of animals in which infection was observed", "setting": "[1]; [7]", "result": "3/5"}]}, {"smiles": "CCCN(CCC)CC(C)C[C@H]1CC[C@H](C(C)(C)C)CC1", "note": "(stereo partly drawn) [Example 1, trans-3-(4'-tert.-Butylcyclohex-1'-yl)-2-methyl-1-(N-di-n-propylamino)-propane]", "values": [{"measurement": "Minimum inhibitory concentrations", "setting": "[2]", "result": "< 0.125"}, {"measurement": "Minimum inhibitory concentrations", "setting": "[3]", "result": "< 0.125"}, {"measurement": "Minimum inhibitory concentrations", "setting": "[4]", "result": "< 0.125"}, {"measurement": "fraction of animals in which infection was observed", "setting": "[1]; 0.2% suspension, 4 days", "result": "3/5"}, {"measurement": "fraction of animals in which infection was observed", "setting": "[1]; 0.2% suspension, 7 days", "result": "2/5"}, {"measurement": "fraction of animals in which infection was observed", "setting": "[1]; [6]", "result": "1/5"}, {"measurement": "fraction of animals in which infection was observed", "setting": "[1]; 0.5% suspension, 4 days", "result": "0/5"}, {"measurement": "fraction of animals in which infection was observed", "setting": "[1]; 0.5% suspension, 7 days", "result": "0/5"}, {"measurement": "fraction of animals in which infection was observed", "setting": "[1]; 0.5% suspension, 7 days after treatment", "result": "0/5"}, {"measurement": "fraction of animals in which infection was observed", "setting": "[1]; 1.0% suspension, 4 days", "result": "1/5"}, {"measurement": "fraction of animals in which infection was observed", "setting": "[1]; 1.0% suspension, 7 days", "result": "0/5"}, {"measurement": "fraction of animals in which infection was observed", "setting": "[1]; [7]", "result": "0/5"}, {"measurement": "Minimum inhibitory concentrations", "setting": "[5]", "result": "< 0.125"}]}, {"smiles": "CCCN(CC)CC(C)C[C@H]1CC[C@H](C(C)(C)C)CC1", "note": "(stereo partly drawn) [Example 2, trans-3-(4'-tert.-Butylcyclohex-1'-yl)-2-methyl-1-(N-ethyl-N-n-propylamino)-propane]", "values": [{"measurement": "Minimum inhibitory concentrations", "setting": "[2]", "result": 1}, {"measurement": "Minimum inhibitory concentrations", "setting": "[3]", "result": 0.25}, {"measurement": "Minimum inhibitory concentrations", "setting": "[4]", "result": "< 0.125"}, {"measurement": "Minimum inhibitory concentrations", "setting": "[5]", "result": 0.25}]}, {"smiles": "Cc1cccc(N(C)C(=S)Oc2ccc3ccccc3c2)c1", "note": "[Tolnaftate, reference compound]", "values": [{"measurement": "fraction of animals in which infection was observed", "setting": "[1]; 1.0% suspension, 4 days", "result": "0/9"}, {"measurement": "fraction of animals in which infection was observed", "setting": "[1]; 1.0% suspension, 7 days", "result": "0/9"}, {"measurement": "fraction of animals in which infection was observed", "setting": "[1]; [7]", "result": "2/9"}]}]}
